Our source for the DC50 values is patent publication US12570671B2 (BRISTOL-MYERS SQUIBB COMPANY, priority 2020, dated 2026).

One assay concerns the target Helios (Homo sapiens, UniProt Q96SW2+Q9UKS7). Put plainly: Helios Cellular Degradation Assay (Helios readout). The class given is cell-based. As to conditions: Jurkat cells, 72 h incubation, Helios-PE antibody staining, flow cytometry; read-out: Helios Jurkat IC50. More on the design: endogenous in cells; host or cells: Jurkat. How it is done:
(§1) Jurkat cells were plated at 80,000 cells/well in 40 μL RPMI+10% FBS in a 384 well cell culture plate prior to using acoustic dispensing technology for adding compound of interest. Cell cultures were incubated for 72 h at 37° C. and 5% C02. In order to facilitate analysis, cell cultures were spun down at 200 rpm for 5 min and the supernatant was discarded. After shaking the plate to dislodge the cell pellet, cells were resuspended in 50 μL of Fixation Buffer (eBioScience FoxP3 buffer set 00-5523-00) for 60 min at room temperature. After centrifuging and discarding the supernatant, cells were permeabilized with 50 μL of Permeabilization buffer (eBioScience FoxP3 buffer set 00-5523-00) for 10 min at room temperature. Following permeabilization, cells were spun down and the supernatant was replaced with 20 μL fluorescently labelled antibodies against Helios, Ikaros and Aiolos or corresponding Isotype controls in 1× Permeabilization buffer (Ikaros-Alexa488 [Biolegend, Cat #368408, 1:50], Helios-PE [CST, Cat #29360, 1:50], Aiolos-Alexa647 [Biolegend, Cat #371106Biolegend, 1:25]) and staining reactions were incubated for 1 h at room temperature; protected from light. Subsequently, 30 μL of 1× Permeabilization buffer was added prior to centrifuging the cells and discarding the supernatant. Stained cells were resuspended in 25 μL of flow cytometry staining buffer (PBS+0.2% BSA) and analyzed using an Intellicyt Ique Plus flow cytometer.
(In flow cytometry, cells or beads pass a laser one at a time.)

In another assay the target is Ikaros (Homo sapiens, UniProt Q13422+Q96SW2). Put plainly: Helios Cellular Degradation Assay (Ikaros readout). It is filed as cell-based. Details: endogenous in cells; host or cells: Jurkat. As to conditions: Jurkat cells, 72 h incubation, Ikaros-Alexa488 antibody staining, flow cytometry; read-out: Ikaros Jurkat IC50. How it is done: as §1
Chain of Ikaros (Q13422 whole entry): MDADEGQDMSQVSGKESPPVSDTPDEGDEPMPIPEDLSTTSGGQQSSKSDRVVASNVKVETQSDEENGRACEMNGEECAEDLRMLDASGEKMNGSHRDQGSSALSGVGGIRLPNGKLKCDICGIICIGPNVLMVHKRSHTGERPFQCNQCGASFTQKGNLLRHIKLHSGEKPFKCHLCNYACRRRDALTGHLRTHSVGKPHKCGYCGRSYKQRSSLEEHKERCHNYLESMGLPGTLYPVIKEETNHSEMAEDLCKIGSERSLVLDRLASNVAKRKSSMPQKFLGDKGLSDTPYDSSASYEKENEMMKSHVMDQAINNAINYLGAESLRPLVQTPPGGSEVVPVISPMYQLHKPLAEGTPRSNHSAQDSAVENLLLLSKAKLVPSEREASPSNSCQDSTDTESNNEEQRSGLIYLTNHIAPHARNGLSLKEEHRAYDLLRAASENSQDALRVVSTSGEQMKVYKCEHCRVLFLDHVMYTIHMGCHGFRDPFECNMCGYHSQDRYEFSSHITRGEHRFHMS
Chain of Ikaros (Q96SW2 whole entry): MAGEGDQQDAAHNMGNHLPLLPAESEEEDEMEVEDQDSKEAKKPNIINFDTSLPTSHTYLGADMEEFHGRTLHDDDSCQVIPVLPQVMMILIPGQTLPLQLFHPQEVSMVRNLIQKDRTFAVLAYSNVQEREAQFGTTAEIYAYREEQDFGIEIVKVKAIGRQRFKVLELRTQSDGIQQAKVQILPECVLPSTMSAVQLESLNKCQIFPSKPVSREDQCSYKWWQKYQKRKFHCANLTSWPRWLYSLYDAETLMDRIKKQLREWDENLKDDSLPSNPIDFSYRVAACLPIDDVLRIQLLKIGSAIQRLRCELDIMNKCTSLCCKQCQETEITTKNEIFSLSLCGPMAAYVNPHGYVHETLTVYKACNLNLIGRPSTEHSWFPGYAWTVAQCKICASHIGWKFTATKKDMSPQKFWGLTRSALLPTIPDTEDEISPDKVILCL
Chain of Ikaros (Q16531 whole entry partner): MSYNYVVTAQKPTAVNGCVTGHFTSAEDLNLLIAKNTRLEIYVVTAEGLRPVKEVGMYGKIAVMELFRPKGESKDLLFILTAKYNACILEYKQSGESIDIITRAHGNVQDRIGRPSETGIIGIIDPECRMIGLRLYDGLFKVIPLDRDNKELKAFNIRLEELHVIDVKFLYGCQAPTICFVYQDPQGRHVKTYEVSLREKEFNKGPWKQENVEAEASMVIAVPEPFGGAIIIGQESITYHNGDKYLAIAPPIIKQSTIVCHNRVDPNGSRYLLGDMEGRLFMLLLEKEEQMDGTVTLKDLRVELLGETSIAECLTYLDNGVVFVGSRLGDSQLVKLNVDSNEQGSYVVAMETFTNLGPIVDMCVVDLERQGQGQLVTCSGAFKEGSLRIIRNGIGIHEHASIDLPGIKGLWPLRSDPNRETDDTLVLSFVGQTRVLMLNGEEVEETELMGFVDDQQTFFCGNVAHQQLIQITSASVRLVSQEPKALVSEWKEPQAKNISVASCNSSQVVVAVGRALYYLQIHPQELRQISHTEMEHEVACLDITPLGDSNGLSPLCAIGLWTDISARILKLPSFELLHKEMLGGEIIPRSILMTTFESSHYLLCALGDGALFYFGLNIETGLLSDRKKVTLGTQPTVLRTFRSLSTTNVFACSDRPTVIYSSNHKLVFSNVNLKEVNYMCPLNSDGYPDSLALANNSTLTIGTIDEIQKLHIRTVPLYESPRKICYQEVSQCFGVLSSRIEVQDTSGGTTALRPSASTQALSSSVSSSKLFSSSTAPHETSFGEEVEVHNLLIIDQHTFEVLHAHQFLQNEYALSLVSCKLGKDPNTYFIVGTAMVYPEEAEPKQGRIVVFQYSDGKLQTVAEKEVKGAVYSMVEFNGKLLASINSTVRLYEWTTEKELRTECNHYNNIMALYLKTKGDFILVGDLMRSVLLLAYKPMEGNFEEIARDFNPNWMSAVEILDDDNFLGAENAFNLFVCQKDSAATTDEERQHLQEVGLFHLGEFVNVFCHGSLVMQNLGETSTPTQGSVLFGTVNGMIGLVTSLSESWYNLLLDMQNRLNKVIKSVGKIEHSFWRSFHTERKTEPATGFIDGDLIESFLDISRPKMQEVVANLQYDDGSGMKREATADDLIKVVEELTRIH

Chain of Helios (Q9UKS7 whole entry): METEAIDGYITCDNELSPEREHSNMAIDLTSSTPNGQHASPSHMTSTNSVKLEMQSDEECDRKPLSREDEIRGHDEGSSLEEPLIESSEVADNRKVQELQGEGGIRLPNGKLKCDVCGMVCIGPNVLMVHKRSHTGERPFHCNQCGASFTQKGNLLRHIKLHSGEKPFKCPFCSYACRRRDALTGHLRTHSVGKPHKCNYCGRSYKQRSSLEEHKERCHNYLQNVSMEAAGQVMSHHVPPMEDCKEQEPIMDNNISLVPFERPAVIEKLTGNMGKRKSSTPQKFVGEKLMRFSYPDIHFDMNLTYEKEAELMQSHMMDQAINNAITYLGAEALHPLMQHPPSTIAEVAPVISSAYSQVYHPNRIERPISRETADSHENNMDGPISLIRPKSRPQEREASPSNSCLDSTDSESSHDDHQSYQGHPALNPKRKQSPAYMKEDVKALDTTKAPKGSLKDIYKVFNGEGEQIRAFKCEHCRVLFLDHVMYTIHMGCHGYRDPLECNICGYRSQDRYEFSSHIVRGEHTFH
Chain of Helios (Q96SW2 whole entry): as the sequence (Q96SW2 whole entry) above
Chain of Helios (Q16531 whole entry partner): as the sequence (Q16531 whole entry partner) above

As to `O=C1CCC(N2Cc3cc(-c4cnc5cc(Cl)ccc5n4)ccc3C2=O)C(=O)N1` (centres unmarked) [Example 18, 3-[5-(6-chloroquinoxalin-2-yl)-1-oxo-2,3-dihydro-1H-isoindol-2-yl]piperidine-2,6-dione], the DC50 was 120 nM on Helios and above 20000 nM at Ikaros.
As to `O=C1CCC(N2Cc3cc(-c4nccc5ccc(F)cc45)ccc3C2=O)C(=O)N1` (centres unmarked) [Example 19, 3-[5-(7-fluoroisoquinolin-1-yl)-1-oxo-2,3-dihydro-1H-isoindol-2-yl]piperidine-2,6-dione], the DC50 amounted to 30 nM on Helios and 140 nM on Ikaros.
Consider `O=C1CCC(N2Cc3cc(-c4nccc5c(F)cccc45)ccc3C2=O)C(=O)N1` (centres unmarked) [Example 20, 3-[5-(5-fluoroisoquinolin-1-yl)-1-oxo-2,3-dihydro-1H-isoindol-2-yl]piperidine-2,6-dione], for which the DC50 at Helios is 20 nM; on Ikaros, 34 nM.
Take `O=C1CCC(N2Cc3cc(-c4ccc5ncccc5n4)ccc3C2=O)C(=O)N1` (centres unmarked) [Example 21, 3-[5-(1,5-naphthyridin-2-yl)-1-oxo-2,3-dihydro-1H-isoindol-2-yl]piperidine-2,6-dione]: the figures for the DC50 at Helios and at Ikaros were 37 nM and above 20000 nM, respectively.
Turning to `Nc1nc(-c2ccc3c(c2)CN(C2CCC(=O)NC2=O)C3=O)nc2ccccc12` (centres unmarked) [Example 22, 3-[5-(4-aminoquinazolin-2-yl)-1-oxo-2,3-dihydro-1H-isoindol-2-yl]piperidine-2,6-dione], the DC50 was 8 nM on Helios and above 20000 nM at Ikaros.
For the compound `Cc1ccc2c(-c3ccc4c(c3)CN(C3CCC(=O)NC3=O)C4=O)nccc2c1` (centres unmarked) [Example 23, 3-[5-(6-methylisoquinolin-1-yl)-1-oxo-2,3-dihydro-1H-isoindol-2-yl]piperidine-2,6-dione], the DC50 on Helios turned out to be 6 nM; on Ikaros, 130 nM.
For `Cc1cc(-c2ccc3c(c2)CN(C2CCC(=O)NC2=O)C3=O)nc2ccccc12` (centres unmarked) [Example 24, 3-[5-(4-methylquinolin-2-yl)-1-oxo-2,3-dihydro-1H-isoindol-2-yl]piperidine-2,6-dione], the figures for the DC50 on Helios and on Ikaros were 9 nM and above 20000 nM, respectively.
The matching figures for `Nc1cc2ccccc2c(-c2ccc3c(c2)CN(C2CCC(=O)NC2=O)C3=O)n1` (centres unmarked) [Example 25, 3-[5-(3-aminoisoquinolin-1-yl)-1-oxo-2,3-dihydro-1H-isoindol-2-yl]piperidine-2,6-dione]: 48 nM and 8400 nM.
Turning to `O=C1CCC(N2Cc3cc(-c4cnc5cc(F)ccc5n4)ccc3C2=O)C(=O)N1` (centres unmarked) [Example 26, 3-[5-(6-fluoroquinoxalin-2-yl)-1-oxo-2,3-dihydro-1H-isoindol-2-yl]piperidine-2,6-dione], the results for the DC50 at Helios and on Ikaros were 98 nM and above 20000 nM, respectively.
In the case of `O=C1CCC(N2Cc3cc(-c4ccc5cc(Cl)ccc5n4)ccc3C2=O)C(=O)N1` (centres unmarked) [Example 27, 3-[5-(6-chloroquinolin-2-yl)-1-oxo-2,3-dihydro-1H-isoindol-2-yl]piperidine-2,6-dione], the values for the DC50 at Helios and on Ikaros were 25 nM and above 20000 nM, respectively.
Turning to `O=C1CCC(N2Cc3cc(-c4ccc5ccc(Cl)cc5n4)ccc3C2=O)C(=O)N1` (centres unmarked) [Example 28, 3-[5-(7-chloroquinolin-2-yl)-1-oxo-2,3-dihydro-1H-isoindol-2-yl]piperidine-2,6-dione], the DC50 at Helios was 57 nM; on Ikaros it was above 20000 nM.
Take `COc1ccc2nc(-c3ccc4c(c3)CN(C3CCC(=O)NC3=O)C4=O)ccc2c1` (centres unmarked) [Example 29, 3-[5-(6-methoxyquinolin-2-yl)-1-oxo-2,3-dihydro-1H-isoindol-2-yl]piperidine-2,6-dione]: the DC50 at Helios was 25 nM; at Ikaros, above 20000 nM.
As to `CCOC(=O)c1nc2ccccc2nc1-c1ccc2c(c1)CN(C1CCC(=O)NC1=O)C2=O` (centres unmarked) [Example 30, ethyl 3-[2-(2,6-dioxopiperidin-3-yl)-1-oxo-2,3-dihydro-1H-isoindol-5-yl]quinoxaline-2-carboxylate], the DC50 on Helios and on Ikaros was above 20000 nM in each case.
Turning to `COC(=O)c1ccc2nc(-c3ccc4c(c3)CN(C3CCC(=O)NC3=O)C4=O)ccc2c1` (centres unmarked) [Example 31, methyl 2-[2-(2,6-dioxopiperidin-3-yl)-1-oxo-2,3-dihydro-1H-isoindol-5-yl]quinoline-6-carboxylate], the DC50 on Helios and on Ikaros was above 20000 nM in each case.
`Cc1cc2ccccc2nc1-c1ccc2c(c1)CN(C1CCC(=O)NC1=O)C2=O` (centres unmarked) [Example 32, 3-[5-(3-methylquinolin-2-yl)-1-oxo-2,3-dihydro-1H-isoindol-2-yl]piperidine-2,6-dione]: the figures for the DC50 on Helios and at Ikaros were 480 nM and above 20000 nM, respectively.
Consider `COc1cccc2ccc(-c3ccc4c(c3)CN(C3CCC(=O)NC3=O)C4=O)nc12` (centres unmarked) [Example 33, 3-[5-(8-methoxyquinolin-2-yl)-1-oxo-2,3-dihydro-1H-isoindol-2-yl]piperidine-2,6-dione], for which the values for the DC50 on Helios and at Ikaros were 120 nM and above 20000 nM, respectively.
As to `O=C1CCC(N2Cc3cc(-c4ccc5cccc(Cl)c5n4)ccc3C2=O)C(=O)N1` (centres unmarked) [Example 34, 3-[5-(8-chloroquinolin-2-yl)-1-oxo-2,3-dihydro-1H-isoindol-2-yl]piperidine-2,6-dione], the figures for the DC50 at Helios and on Ikaros were 70 nM and above 20000 nM, respectively.
Regarding `O=C1CCC(N2Cc3cc(-c4ncc5cc(F)ccc5n4)ccc3C2=O)C(=O)N1` (centres unmarked) [Example 35, 3-[5-(6-fluoroquinazolin-2-yl)-1-oxo-2,3-dihydro-1H-isoindol-2-yl]piperidine-2,6-dione], the DC50 at Helios was 53 nM; at Ikaros, above 20000 nM.
As for `O=C1CCC(N2Cc3cc(-c4nc5ccccc5cc4Cl)ccc3C2=O)C(=O)N1` (centres unmarked) [Example 36, 3-[5-(3-chloroquinolin-2-yl)-1-oxo-2,3-dihydro-1H-isoindol-2-yl]piperidine-2,6-dione], the DC50 is 110 nM on Helios and above 20000 nM on Ikaros.
As for `O=C1CCC(N2Cc3cc(-c4cc(O)c5ccccc5n4)ccc3C2=O)C(=O)N1` (centres unmarked) [Example 37, 3-[5-(4-hydroxyquinolin-2-yl)-1-oxo-2,3-dihydro-1H-isoindol-2-yl]piperidine-2,6-dione], the DC50 was 2400 nM on Helios and above 20000 nM on Ikaros.
With `O=C1CCC(N2Cc3cc(-c4ccc5cc(F)ccc5n4)ccc3C2=O)C(=O)N1` (centres unmarked) [Example 38, 3-[5-(6-fluoroquinolin-2-yl)-1-oxo-2,3-dihydro-1H-isoindol-2-yl]piperidine-2,6-dione], the DC50 at Helios is 22 nM; on Ikaros, above 20000 nM.
Consider `Cc1ccc2nc(-c3ccc4c(c3)CN(C3CCC(=O)NC3=O)C4=O)ccc2c1` (centres unmarked) [Example 39, 3-[5-(6-methylquinolin-2-yl)-1-oxo-2,3-dihydro-1H-isoindol-2-yl]piperidine-2,6-dione], for which the DC50 at Helios is 25 nM; on Ikaros, above 20000 nM.
As for `O=C1CCC(N2Cc3cc(-c4ccc5cc(O)ccc5n4)ccc3C2=O)C(=O)N1` (centres unmarked) [Example 40, 3-[5-(6-hydroxyquinolin-2-yl)-1-oxo-2,3-dihydro-1H-isoindol-2-yl]piperidine-2,6-dione], the DC50 at Helios was 19 nM; at Ikaros, above 20000 nM.
The matching figures for `COC(=O)c1ccc2cnc(-c3ccc4c(c3)CN(C3CCC(=O)NC3=O)C4=O)nc2c1` (centres unmarked) [Example 41, methyl 2-[2-(2,6-dioxopiperidin-3-yl)-1-oxo-2,3-dihydro-1H-isoindol-5-yl]quinazoline-7-carboxylate]: above 20000 nM and above 20000 nM.
In the case of `C[Si](C)(C)CCn1nnc2c(-c3ccc4c(c3)CN(C3CCC(=O)NC3=O)C4=O)nc(N)nc21` (centres unmarked) [Example 42, 3-(5-{5-amino-3-[2-(trimethylsilyl)ethyl]-3H-[1,2,3]triazolo[4,5-d]pyrimidin-7-yl}-1-oxo-2,3-dihydro-1H-isoindol-2-yl)piperidine-2,6-dione], the DC50 on Helios was found to be 110 nM; on Ikaros, 3600 nM.
For `Nc1nc(-c2ccc3c(c2)CN(C2CCC(=O)NC2=O)C3=O)c2nc[nH]c2n1` (centres unmarked) [Example 43, 3-[5-(2-amino-9H-purin-6-yl)-1-oxo-2,3-dihydro-1H-isoindol-2-yl]piperidine-2,6-dione], the DC50 at Helios and at Ikaros was above 20000 nM throughout.
Consider `Nc1nc(-c2ccc3c(c2)CN(C2CCC(=O)NC2=O)C3=O)nc2nc[nH]c12` (centres unmarked) [Example 44, 3-[5-(6-amino-7H-purin-2-yl)-1-oxo-2,3-dihydro-1H-isoindol-2-yl]piperidine-2,6-dione], for which the DC50 on Helios is 98 nM; on Ikaros, above 20000 nM.
Take `CCn1ncc2c(-c3ccc4c(c3)CN(C3CCC(=O)NC3=O)C4=O)nc(N)nc21` (centres unmarked) [Example 45, 3-(5-{6-amino-1-ethyl-1H-pyrazolo[3,4-d]pyrimidin-4-yl}-1-oxo-2,3-dihydro-1H-isoindol-2-yl)piperidine-2,6-dione]: the DC50 at Helios was 430 nM; at Ikaros it was above 20000 nM.
